Experimental data: the supplement of paper PMC11451515

Test system: NOMO1
Assay: cell viability relative to DMSO control; higher = less cytotoxic
Conditions: 48 h
Outline: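 In 1536-well plates, 5 μl of leukemia cells were seeded per well: 500 cells/well for NOMO1 or SEM and 1000 cells/well for P12-Ichikawa. Each line had first been adapted for at least four passages in each medium. Library compounds in DMSO were pin-dosed at 11 threefold concentrations between 47 μM and 0.79 nM, and CellTiter-Glo One luminescence was read after 48 h at 37°C. Viability is a per-plate percentage relative to DMSO wells, with cell-free wells as background.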

[1] = HPLM + 10% dialyzed FBS, 0.000781 µM
[2] = HPLM + 10% dialyzed FBS, 0.00234 µM
[3] = HPLM + 10% dialyzed FBS, 0.00702 µM
[4] = HPLM + 10% dialyzed FBS, 0.0211 µM
[5] = HPLM + 10% dialyzed FBS, 0.0632 µM
[6] = HPLM + 10% dialyzed FBS, 0.19 µM
[7] = HPLM + 10% dialyzed FBS, 0.569 µM
[8] = HPLM + 10% dialyzed FBS, 1.71 µM
[9] = HPLM + 10% dialyzed FBS, 5.12 µM
[10] = HPLM + 10% dialyzed FBS, 15.4 µM
[11] = HPLM + 10% dialyzed FBS, 46.1 µM
[12] = RPMI 5 mM glucose + 10% FBS, 0.000781 µM
[13] = RPMI 5 mM glucose + 10% FBS, 0.00234 µM
[14] = RPMI 5 mM glucose + 10% FBS, 0.00702 µM
[15] = RPMI 5 mM glucose + 10% FBS, 0.0211 µM
[16] = RPMI 5 mM glucose + 10% FBS, 0.0632 µM
[17] = RPMI 5 mM glucose + 10% FBS, 0.19 µM
[18] = RPMI 5 mM glucose + 10% FBS, 0.569 µM
[19] = RPMI 5 mM glucose + 10% FBS, 1.71 µM
[20] = RPMI 5 mM glucose + 10% FBS, 5.12 µM
[21] = RPMI 5 mM glucose + 10% FBS, 15.4 µM
[22] = RPMI 5 mM glucose + 10% FBS, 46.1 µM
[23] = RPMI 5 mM glucose + 10% dialyzed FBS, 0.000781 µM
[24] = RPMI 5 mM glucose + 10% dialyzed FBS, 0.00234 µM
[25] = RPMI 5 mM glucose + 10% dialyzed FBS, 0.00702 µM
[26] = RPMI 5 mM glucose + 10% dialyzed FBS, 0.0211 µM
[27] = RPMI 5 mM glucose + 10% dialyzed FBS, 0.0632 µM
[28] = RPMI 5 mM glucose + 10% dialyzed FBS, 0.19 µM
[29] = RPMI 5 mM glucose + 10% dialyzed FBS, 0.569 µM
[30] = RPMI 5 mM glucose + 10% dialyzed FBS, 1.71 µM
[31] = RPMI 5 mM glucose + 10% dialyzed FBS, 5.12 µM
[32] = RPMI 5 mM glucose + 10% dialyzed FBS, 15.4 µM
[33] = RPMI 5 mM glucose + 10% dialyzed FBS, 46.1 µM

SMILES | cell viability [1] | cell viability [2] | cell viability [3] | cell viability [4] | cell viability [5] | cell viability [6] | cell viability [7] | cell viability [8] | cell viability [9] | cell viability [10] | cell viability [11] | cell viability [12] | cell viability [13] | cell viability [14] | cell viability [15] | cell viability [16] | cell viability [17] | cell viability [18] | cell viability [19] | cell viability [20] | cell viability [21] | cell viability [22] | cell viability [23] | cell viability [24] | cell viability [25] | cell viability [26] | cell viability [27] | cell viability [28] | cell viability [29] | cell viability [30] | cell viability [31] | cell viability [32] | cell viability [33]
COc1cc2nccc(Oc3ccc(NC(=O)C4(C(=O)Nc5ccc(F)cc5)CC4)cc3)c2cc1OC | 113% | 114% | 112% | 116% | 94.2% | 101% | 116% | 104% | 93.7% | 69.8% | 32.3% | 95.6% | 124% | 101% | 114% | 103% | 104% | 95.1% | 107% | 96.2% | 102% | 64.8% | 102% | 99.2% | 110% | 107% | 111% | 98.2% | 109% | 98% | 95.5% | 71.7% | 47.1%
Fc1ccc(C(c2ccc(F)cc2)N2CCN(C/C=C/c3ccccc3)CC2)cc1 | 115% | 123% | 144% | 135% | 117% | 121% | 104% | 103% | 105% | 112% | 95.9% | 112% | 111% | 106% | 123% | 113% | 114% | 107% | 107% | 108% | 115% | 104% | – | – | – | – | – | – | – | – | – | – | –
CC1(C)[C@@H](O[C@H]2O[C@H](C(=O)O)[C@@H](O)[C@H](O)[C@H]2O[C@@H]2O[C@H](C(=O)O)[C@@H](O)[C@H](O)[C@H]2O)CC[C@]2(C)[C@H]3C(=O)C=C4[C@@H]5C[C@@](C)(C(=O)O)CC[C@]5(C)CC[C@@]4(C)[C@]3(C)CC[C@@H]12 | – | – | – | – | – | – | – | – | – | – | – | – | – | – | – | – | – | – | – | – | – | – | 109% | 123% | 134% | 142% | 154% | 145% | 136% | 160% | 154% | 140% | 161%
CCOC(=O)C/1=C(C)/NC(=S)NC1C2=CC=CC(=C2)O (stereo not drawn) | – | – | – | – | – | – | – | – | – | – | – | 103% | 124% | 117% | 128% | 123% | 47.3% | 22.7% | 24.3% | 19.3% | 22.3% | 17.1% | 117% | 120% | 133% | 126% | 132% | 99.5% | 33.2% | 32.1% | 22.9% | 26.4% | 23.3%
CN(N=O)C(=O)N[C@H]1C(O)OC(CO)[C@@H](O)[C@@H]1O (stereo partly drawn) | 82.7% | 89.7% | 98.6% | 95.7% | 98.6% | 82.6% | 90.2% | 85% | 83.1% | 93.1% | 88.4% | 77.7% | 79.6% | 82.4% | 80.6% | 81.3% | 90.3% | 85.7% | 73.7% | 81.5% | 88% | 79.5% | 69.3% | 78.8% | 74.3% | 75.5% | 84.3% | 75.6% | 81.2% | 82.7% | 81.4% | 86% | 72.4%
FC(F)(F)c1ccc(Nc2nc3cc(Oc4ccnc(-c5ncc(C(F)(F)F)[nH]5)c4)ccc3[nH]2)cc1 | – | – | – | – | – | – | – | – | – | – | – | – | – | – | – | – | – | – | – | – | – | – | 109% | 124% | 136% | 133% | 136% | 132% | 131% | 145% | 130% | 148% | 89.3%
COc1ccc(/C=C\c2cc(OC)c(OC)c(OC)c2)cc1O | 43.4% | 51.5% | 49% | 49% | 44.6% | 47% | 41.7% | 36.6% | 36.1% | 25.3% | 23.2% | 32.1% | 33.7% | 31.2% | 31.2% | 31.7% | 26.6% | 22.5% | 22.1% | 23.3% | 19% | 14.7% | 37.3% | 35.2% | 40.9% | 38.7% | 34.9% | 33.4% | 31.8% | 30.7% | 27.8% | 23.4% | 20%
Cc1ccc(NC(=O)C2(c3ccc4c(c3)OC(F)(F)O4)CC2)nc1-c1cccc(C(=O)O)c1 | 107% | 122% | 95.4% | 102% | 98.8% | 53.4% | 19% | 9.04% | 7.86% | 6.36% | 4.68% | 97.6% | 93.2% | 99.6% | 96.9% | 91.6% | 43.4% | 17.4% | 10.2% | 7.42% | 6.77% | 4.07% | 99.8% | 99.8% | 92.1% | 110% | 102% | 56.8% | 27% | 11.4% | 8.3% | 7.38% | 4.48%
